Assay [1] can be described thus: Inhibition of PDE9.
In assay [2] the target is High affinity cGMP-specific 3',5'-cyclic phosphodiesterase 9A (Homo sapiens, UniProt O76083). Put plainly: Inhibition of human PDE9A expressed in Escherichia coli BL21 by liquid scintillation counting.

Where only a bound is given, the exact number is not on record here.

Chain of High affinity cGMP-specific 3',5'-cyclic phosphodiesterase 9A (O76083 whole entry): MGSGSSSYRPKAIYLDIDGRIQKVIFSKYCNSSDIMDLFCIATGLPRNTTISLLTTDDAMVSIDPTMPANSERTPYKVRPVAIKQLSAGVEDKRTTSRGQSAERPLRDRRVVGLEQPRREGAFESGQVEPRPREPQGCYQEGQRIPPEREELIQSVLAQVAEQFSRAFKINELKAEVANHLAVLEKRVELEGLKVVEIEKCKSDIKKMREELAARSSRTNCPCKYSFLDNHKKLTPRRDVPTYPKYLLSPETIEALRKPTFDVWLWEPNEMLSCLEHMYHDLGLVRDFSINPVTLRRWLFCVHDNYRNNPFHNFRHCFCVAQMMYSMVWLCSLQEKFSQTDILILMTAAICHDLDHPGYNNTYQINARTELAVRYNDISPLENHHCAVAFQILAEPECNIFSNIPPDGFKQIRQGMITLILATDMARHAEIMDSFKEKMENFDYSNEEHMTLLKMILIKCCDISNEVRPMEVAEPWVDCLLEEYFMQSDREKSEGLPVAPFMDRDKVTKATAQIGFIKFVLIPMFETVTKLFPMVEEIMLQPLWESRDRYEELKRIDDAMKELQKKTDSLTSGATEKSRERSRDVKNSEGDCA

As for `C[C@H](Cc1nc2c(cnn2-c2ccccc2Cl)c(=O)[nH]1)C(F)(F)F`, in assay [1], the IC50 turned out to be 55 nM.
Compound `CC(C)Cn1c(=O)n(C)c(=O)c2[nH]cnc21` [ISOBUTYLMETHYLXANTHINE] showed an IC50 in assay [2] of over 200 µM.

What is called IC50 is the concentration at which inhibition is half-maximal. Read a high IC50 as weaker potency in that assay.

Values taken from ChEMBL document CHEMBL1154916, “Insight into binding of phosphodiesterase-9A selective inhibitors by crystal structures and mutagenesis” (J Med Chem, 2010).
